Some test systems named below: LOX IMVI melanoma; MOLT-4 leukemia; SK-MEL-2 melanoma; SW-620 colon; EKVX NSCLC; A549 NSCLC; NCI-H522 lung; ACHN renal; K-562 leukemia; SF-268 CNS.
What all share (test): inhibition of tumour cell growth, NCI panel, 48 h

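Tested at 5 concentrations; 48 h exposure; 96-well plates; endpoints linearly interpolated, else capped at highest concentration. GI50 marks 50% less growth. At the TGI there is no net growth.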

With `O=C(O)COc1ccc2c3c1C(=O)CCC3CO2` (centres undefined), the TGI in the assay with LOX IMVI melanoma, with MOLT-4 leukemia, in the assay with SK-MEL-2 melanoma, in the assay on SW-620 colon, with EKVX NSCLC and in the assay with A549 NSCLC was > 100 µM in each case. The TGI in the assay with NCI-H522 lung, in the assay on ACHN renal, in the assay on K-562 leukemia and in the assay on SF-268 CNS was > 100 µM throughout.
`COc1cc2c3c(n(CCCNC(C)(C)CO)c(=O)c2cc1OC)-c1cc2c(cc1C3=O)OCO2`: the GI50 with LOX IMVI melanoma was 0.255 µM; with SK-MEL-2 melanoma, 30.8 µM; in the assay on SW-620 colon it was 0.25 µM; with EKVX NSCLC, 16.6 µM; with A549 NSCLC, 1.5 µM; in the assay with NCI-H522 lung, 0.448 µM. Besides, the GI50 in the assay on ACHN renal was 0.331 µM; in the assay with K-562 leukemia, 2.82 µM; in the assay with SF-268 CNS it was 3.81 µM. For the same compound, the TGI in the assay with LOX IMVI melanoma is 2.06 µM; in the assay with MOLT-4 leukemia, 0.11 µM; in the assay on SK-MEL-2 melanoma, > 78.5 µM; with SW-620 colon, 19 µM; in the assay on EKVX NSCLC it was 42.7 µM; in the assay on A549 NSCLC, 23.9 µM. Also, the TGI was > 21.8 µM in the assay on NCI-H522 lung, 14.3 µM with ACHN renal, > 55.7 µM in the assay on K-562 leukemia and 56.6 µM in the assay on SF-268 CNS.
Consider `CC1=CC=C2C(C)(C)CC[C@@H]3OC(=O)[C@H]1[C@]23C`, for which the TGI in the assay on LOX IMVI melanoma, in the assay with MOLT-4 leukemia, with SK-MEL-2 melanoma, in the assay with SW-620 colon, in the assay on EKVX NSCLC and with A549 NSCLC was > 100 µM each time. Besides, the TGI in the assay with NCI-H522 lung, in the assay on ACHN renal, in the assay with K-562 leukemia and in the assay with SF-268 CNS was > 100 µM each time.
Take `CC[C@H]1[C@@H](C)C=C[C@@H](C)N1S(=O)(=O)c1ccc(C)cc1`: the TGI in the assay on LOX IMVI melanoma is > 100 µM; in the assay with MOLT-4 leukemia, > 100 µM; in the assay with SK-MEL-2 melanoma it was 52.9 µM; with SW-620 colon it was > 100 µM; in the assay with EKVX NSCLC, > 100 µM; with A549 NSCLC, > 100 µM. Also, the TGI in the assay on NCI-H522 lung, in the assay with ACHN renal, with K-562 leukemia and with SF-268 CNS was > 100 µM each time.
Take `COC(=O)C(=O)C(C(=O)C(=O)Nc1ccccc1C(N)=O)c1nc2ccc([N+](=O)[O-])cc2[nH]c1=O` (centres undefined): the TGI in the assay with LOX IMVI melanoma, in the assay with MOLT-4 leukemia, in the assay on SK-MEL-2 melanoma, in the assay with SW-620 colon, in the assay with EKVX NSCLC and in the assay with A549 NSCLC was > 100 µM throughout. For the same compound, the TGI in the assay on NCI-H522 lung, in the assay with ACHN renal, with K-562 leukemia and in the assay on SF-268 CNS was > 100 µM throughout.
As for `Cc1cc2c(cc1C)[n+](=O)c(C(=O)CC(=O)C(=O)Nc1ccccc1C)c(C)n2[O-]`, the TGI in the assay with LOX IMVI melanoma, in the assay on MOLT-4 leukemia, with SK-MEL-2 melanoma, with SW-620 colon, in the assay on EKVX NSCLC and in the assay with A549 NSCLC was > 100 µM throughout. Also, the TGI in the assay on NCI-H522 lung, in the assay on ACHN renal, in the assay on K-562 leukemia and in the assay on SF-268 CNS was > 100 µM in each case.
With `CN(CC(=O)O)S(=O)(=O)c1ccc(Cl)cc1`, the TGI in the assay on LOX IMVI melanoma, with MOLT-4 leukemia, in the assay on SK-MEL-2 melanoma, in the assay on SW-620 colon, in the assay on EKVX NSCLC and in the assay with A549 NSCLC was > 100 µM in each case. Besides, the TGI with NCI-H522 lung, in the assay with ACHN renal, with K-562 leukemia and in the assay on SF-268 CNS was > 100 µM each time.
Consider `OC1CCC(COC(c2ccccc2)(c2ccccc2)c2ccccc2)O1` (centres undefined), for which the TGI with LOX IMVI melanoma is 34.3 µM; in the assay with MOLT-4 leukemia, 35.2 µM; in the assay with SK-MEL-2 melanoma, 42.6 µM; in the assay on SW-620 colon, 37.2 µM; in the assay on EKVX NSCLC it was > 10 µM; with A549 NSCLC, 37 µM. Moreover, the TGI in the assay on NCI-H522 lung turned out to be 31.8 µM; in the assay on ACHN renal, 31.1 µM; in the assay with K-562 leukemia it was 41.1 µM; in the assay on SF-268 CNS, 33.6 µM.
Take `O=C(O)c1ccc(NCn2nc(-c3ccccc3O)oc2=S)cc1O`: the GI50 in the assay on LOX IMVI melanoma was 25.4 µM; with MOLT-4 leukemia it was 26.1 µM; with SK-MEL-2 melanoma it was 46.8 µM; in the assay on SW-620 colon, 41.9 µM; with EKVX NSCLC, > 100 µM; in the assay on A549 NSCLC, > 100 µM. Moreover, the GI50 in the assay on NCI-H522 lung was > 100 µM; in the assay on ACHN renal it was 31.6 µM; with K-562 leukemia it was > 100 µM; in the assay on SF-268 CNS it was > 100 µM. For the same compound, the TGI in the assay with LOX IMVI melanoma is > 100 µM; in the assay on MOLT-4 leukemia it was 82.1 µM; with SK-MEL-2 melanoma, > 100 µM; with SW-620 colon, > 100 µM; in the assay on EKVX NSCLC, > 100 µM; in the assay on A549 NSCLC, > 100 µM. Further, the TGI in the assay with NCI-H522 lung was > 100 µM; with ACHN renal it was 99.1 µM; in the assay on K-562 leukemia it was > 100 µM; with SF-268 CNS, > 100 µM.
For `N#C/C(=C\c1ccc([N+](=O)[O-])cc1)n1nnc2cc(F)c(F)cc21`, the GI50 in the assay with LOX IMVI melanoma was 1.55 µM; with MOLT-4 leukemia, 2.97 µM; in the assay on SK-MEL-2 melanoma, 2.32 µM; with SW-620 colon, 1.73 µM; in the assay on EKVX NSCLC it was 1.7 µM; with A549 NSCLC, 2.62 µM. Further, the GI50 in the assay on NCI-H522 lung was 1.66 µM; with ACHN renal, 1.74 µM; in the assay on K-562 leukemia, 3.14 µM; in the assay on SF-268 CNS, 3.13 µM. The TGI with LOX IMVI melanoma stood at 2.97 µM; with MOLT-4 leukemia, 10.5 µM; with SK-MEL-2 melanoma, 5.58 µM; with SW-620 colon, 3.53 µM; with EKVX NSCLC, 3.56 µM; in the assay on A549 NSCLC, 9.04 µM. Also, the TGI is 3.79 µM in the assay on NCI-H522 lung, 3.11 µM with ACHN renal, > 100 µM in the assay on K-562 leukemia and 12.1 µM with SF-268 CNS.

These data come from PubChem BioAssay (NCI).
